The Ki is a measure of affinity in units of concentration, obtained from inhibition or displacement.

Residues, ends and D or L forms follow the SMILES beside them.

Sequence of Nociceptin receptor (P35377 whole entry): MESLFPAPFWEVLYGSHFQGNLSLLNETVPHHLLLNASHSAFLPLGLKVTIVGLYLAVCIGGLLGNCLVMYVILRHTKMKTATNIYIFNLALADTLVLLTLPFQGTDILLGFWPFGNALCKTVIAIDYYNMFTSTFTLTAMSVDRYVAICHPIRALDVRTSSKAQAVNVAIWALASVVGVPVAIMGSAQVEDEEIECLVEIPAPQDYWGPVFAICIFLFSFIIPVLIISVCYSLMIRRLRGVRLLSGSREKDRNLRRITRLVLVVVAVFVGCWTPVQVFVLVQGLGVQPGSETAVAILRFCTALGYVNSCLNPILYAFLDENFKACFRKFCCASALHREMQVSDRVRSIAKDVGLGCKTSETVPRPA

This experiment addresses Nociceptin receptor (Mus musculus, UniProt P35377).
In turn, `CC(=O)N[C@@H](CCCNC(=N)N)C(=O)N[C@@H](Cc1ccc(O)cc1)C(=O)N[C@@H](Cc1ccc(O)cc1)C(=O)N[C@@H](CCCCN)C(=O)N[C@@H](Cc1c[nH]c2ccccc12)C(=O)N[C@@H](CCCN=C(N)N)C(N)=O` [Ac-RYYKWR-NH2] (Ac-RYYKWR-NH2) returned an inhibition constant Ki of 1.47 nM.

Consider `CC(=O)N[C@@H](CCCNC(=N)N)C(=O)N[C@@H](Cc1ccc(O)cc1)C(=O)N[C@@H](Cc1ccc(O)cc1)C(=O)N[C@@H](CCCNC(=N)N)C(=O)N[C@@H](Cc1c[nH]c2ccccc12)C(=O)N[C@@H](CCCN=C(N)N)C(N)=O` [Ac-RYYRWR-NH2] (Ac-RYYRWR-NH2), for which the affinity corresponds to a Ki of 0.6 nM.

Take `CC(=O)N[C@@H](CCCNC(=N)N)C(=O)N[C@@H](Cc1ccc(O)cc1)C(=O)N[C@@H](Cc1ccc(O)cc1)C(=O)N[C@@H](CCCNC(=N)N)C(=O)N[C@@H](Cc1c[nH]c2ccccc12)C(=O)N[C@@H](CCCCN)C(N)=O` [CAS_200959-47-3] (Ac-RYYRWK-NH2): the Ki was found to be 0.71 nM. This Ki and that of the molecule before are within 1.5-fold of each other.

With `CC[C@H](C)[C@H](NC(=O)[C@H](CCCN=C(N)N)NC(=O)[C@H](Cc1ccc(O)cc1)NC(=O)[C@H](Cc1ccc(O)cc1)NC(=O)[C@H](CCCN=C(N)N)NC(C)=O)C(=O)N[C@@H](CCCCN)C(N)=O` [CAS_200959-48-4], the Ki stood at 1.5 nM.

`CC(C)C[C@H](NC(=O)[C@H](CCCCN)NC(=O)[C@H](CCCN=C(N)N)NC(=O)[C@H](C)NC(=O)[C@H](CO)NC(=O)[C@H](CCCCN)NC(=O)[C@H](CCCN=C(N)N)NC(=O)[C@H](C)NC(=O)CNC(=O)[C@@H](NC(=O)[C@H](Cc1ccccc1)NC(=O)CNC(=O)CNC(=O)[C@@H](N)Cc1ccccc1)[C@@H](C)O)C(=O)N[C@@H](C)C(=O)N[C@@H](CC(N)=O)C(=O)N[C@@H](CCC(N)=O)C(=O)O` [OFQ 1-17] gave an inhibitory constant (Ki) of 0.43 nM.

The values are drawn from BindingDB's records for PubMed 9353393 (Torrey Pines Institute For Molecular Studies, 1997).
